Target: T1, rat Kir3.1/3.4 (Rattus norvegicus, UniProt P48548+P63251)
T1 construct: expressed in transfected cells; host or cells: HEK293 (Human Embryonic Kidney 293), stably transfected
T1 sequence (P63251 1-501): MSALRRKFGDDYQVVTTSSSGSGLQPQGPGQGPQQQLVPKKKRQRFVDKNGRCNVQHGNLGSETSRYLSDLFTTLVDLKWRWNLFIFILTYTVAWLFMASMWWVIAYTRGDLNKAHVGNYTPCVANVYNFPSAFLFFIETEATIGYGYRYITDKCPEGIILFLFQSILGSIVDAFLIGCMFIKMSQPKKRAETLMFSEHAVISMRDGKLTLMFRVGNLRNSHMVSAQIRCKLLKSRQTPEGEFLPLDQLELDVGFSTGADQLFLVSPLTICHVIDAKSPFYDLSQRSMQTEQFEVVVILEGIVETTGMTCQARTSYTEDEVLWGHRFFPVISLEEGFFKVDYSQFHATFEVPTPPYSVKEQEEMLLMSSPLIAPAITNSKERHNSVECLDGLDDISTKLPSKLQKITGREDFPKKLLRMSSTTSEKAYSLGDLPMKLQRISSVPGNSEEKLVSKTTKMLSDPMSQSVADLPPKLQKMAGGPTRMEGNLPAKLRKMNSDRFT
T1 sequence (P48548 1-419): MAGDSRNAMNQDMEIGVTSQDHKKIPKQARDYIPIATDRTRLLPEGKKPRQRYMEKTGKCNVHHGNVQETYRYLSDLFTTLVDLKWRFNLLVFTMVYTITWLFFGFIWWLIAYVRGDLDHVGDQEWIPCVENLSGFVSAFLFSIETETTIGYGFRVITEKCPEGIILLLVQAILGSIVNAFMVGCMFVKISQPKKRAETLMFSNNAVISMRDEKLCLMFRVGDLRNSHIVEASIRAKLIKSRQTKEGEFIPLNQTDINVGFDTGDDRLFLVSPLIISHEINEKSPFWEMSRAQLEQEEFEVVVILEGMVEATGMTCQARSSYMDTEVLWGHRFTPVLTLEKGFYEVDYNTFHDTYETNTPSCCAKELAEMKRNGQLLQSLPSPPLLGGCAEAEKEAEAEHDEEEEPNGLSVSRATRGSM
Assay: Kir3.1/3.4 Electrophysiology Method (manual whole-cell patch clamp)
Type: cell-based
Conditions: Human Embryonic Kidney 293 stably transfected with rat Kir3.1/3.4; inhibition of leak-subtracted current at -140 mV
Procedure: Compound activity against the recombinant G-protein activated inward rectifier current encoded by the heterotetramer Kir3.1/3.4 was assessed using manual whole-cell patch technique. The heterotetramer forms the pore-forming channel that conducts the acetylcholine/adenosine-activated potassium current in the heart.
For whole-cell patch-clamp studies, cells (Human Embryonic Kidney 293 stably transfected with rat Kir3.1/3.4) were seeded onto glass coverslips before recordings were made. Cells were seeded in sterile 30 mm Petri dishes at a density to enable isolated cells to be selected for patch clamp experiments. The dishes were stored in a humidified, gassed (5% CO2) incubator at 37° C. until use.
Whole-cell patch-clamp recordings of membrane currents were made following gigaohm seal formation between the patch electrode and the cell using HEKA EPC-9/10 amplifiers controlled by Pulse Software (Ver8.5x/8.6x/8.7x, HEKA, Germany). Coverslips seeded with cells were placed in a recording chamber mounted on the stage of an inverted microscope. During the experiment, the cell of interest was continuously superfused with bather solution delivered via a cannula placed in close proximity to the cell to enable control of the extracellular solution environment. Only those cells with a current <−500 pA (current at −140 mV) were used for experiments. During experiments, series resistance was compensated by a minimum of 70%.
Electrophysiology voltage-step protocols and analysis of data were performed as follows. Data was sampled at 5 kHz, and filtered with a −3 dB bandwidth of 2.5 kHz. Cells were held at a voltage of −60 mV. Currents were evoked by a depolarising voltage step to +60 mV (100 ms) before a ramp-repolarisation (0.4 V·s^−1) to −140 mV (100 ms) before returning to −60 mV. The command waveform was repeatedly applied every 10 s throughout the experiment. Mean currents during 1-99% of the time at −140 mV were analysed using Pulsefit software (v8.x, HEKA, Germany). The voltage protocol was repeatedly applied to achieve a stable current baseline in bather before the test substance was superfused via the cannula in close proximity to the cell under investigation. The test substance was allowed to equilibrate during which time voltage protocol was repeatedly applied and recorded. On reaching steady-state inhibition, the cell was superfused with an identical bather solution containing zero external potassium chloride (replaced by equimolar NaCl). The identical current measurement was made in the absence of potassium to assess the passive leak at −140 mV. The leak current was subtracted from the control and steady-state drug current values. The percentage inhibition of the leak-subtracted current in the presence of test substance was calculated relative to the control leak-subtracted pre-drug value. Internal patch-pipette solution contained in mM: 110 KCl, 20 NaCl, 0.9 GTPγS, 5 Mg-ATP, 5 EGTA, 10 HEPES, pH7.2 corrected with KOH. The external superfusate composition in mM was: 150 (or 160) NaCl, 10 (or 0) KCl, 3 CaCl2, 1 MgCl, 10 HEPES, pH 7.4 corrected with NaOH.

CNC(=O)c1sc2[nH]nc(N3CCC(COCCN4CCCC4)CC3)c2c1-c1ccccc1 [Compound 25, N-methyl-4-phenyl-3-[4-(2-pyrrolidin-1-ylethoxymethyl)-1-piperidyl]-1H-thieno[2,3-c]pyrazole-5-carboxamide]
IC50: < 500 nM
